Measurements reported in PubChem BioAssay (NCI).
Where “and” joins values, the source holds several entries; their conditions need not be identical. Identical values can stand only once.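 A five-concentration, 48-hour dose response in 96-well plates underlies each endpoint, interpolated linearly between surrounding concentrations. The concentration for 50% growth inhibition is given as GI50. TGI marks complete inhibition of growth.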

Experiments:
Test in all cases: NCI tumour cell line growth inhibition, 48 h
[1] = test system: A498 renal
[2] = test system: TK-10 renal
[3] = test system: NCI-H522 lung
[4] = test system: OVCAR-3 ovarian
[5] = test system: HCT-116 colon
[6] = test system: U251 CNS
[7] = test system: HCC-2998 colon
[8] = test system: KM12 colon
[9] = test system: A549 NSCLC
[10] = test system: MALME-3M melanoma

| Compound | GI50 [1] | TGI [1] | GI50 [2] | TGI [2] | GI50 [3] | TGI [3] | GI50 [4] | TGI [4] | GI50 [5] | TGI [5] | GI50 [6] | TGI [6] | GI50 [7] [µM] | TGI [7] [µM] | GI50 [8] | TGI [8] | GI50 [9] | TGI [9] | GI50 [10] | TGI [10] |
| --- | --- | --- | --- | --- | --- | --- | --- | --- | --- | --- | --- | --- | --- | --- | --- | --- | --- | --- | --- | --- |
| Cc1cnc(C(=O)NNc2nc3sc4c(c3c(=O)n2C)C(C)CCC4)cn1 (centres undefined) | 1.89 µM | 7.8 µM | 0.608 µM | 11.9 µM | 0.328 µM | 4.62 µM | 0.259 µM | 1.8 µM | 0.26 µM | 7.06 µM | 0.228 µM | 2.32 µM | 0.529 | 6.22 | 0.362 µM | 2.16 µM | 0.371 µM | 4.69 µM | 0.544 µM | 3.29 µM |
| Cc1cc(Cl)ccc1NC(=O)CC1SC(=Nc2ccccc2Cl)NC1=O (centres undefined) | – | > 100 µM | – | > 100 µM | – | 80.4 µM | – | > 100 µM | – | > 100 µM | – | > 100 µM | – | > 100 | – | > 100 µM | – | > 100 µM | – | > 100 µM |
| Cc1ncc(C(=O)Nc2ccc(CN3CCN(C)CC3)c(C(F)(F)F)c2)cc1C#Cc1cnc(N)cc1C#N | 0.24 µM | 0.872 µM | 1.7 µM | 3.83 µM | 0.405 µM | 3.24 µM | 0.995 µM | 3.25 µM | 0.182 µM | 2.92 µM | 1.63 µM | 4.02 µM | 1.11 | 3.39 | 0.00758 µM | 1.98 µM | 1.26 µM | 3.93 µM | 0.0196 µM | 0.125 µM |
| NC(N)=NS(=O)(=O)c1ccc(Nc2c3ccccc3nc3c(C(=O)Nc4ccc(S(N)(=O)=O)cc4)cccc23)cc1 | – | > 100 µM | – | > 100 µM | – | 68.7 µM | – | > 100 µM | – | > 100 µM | – | > 100 µM | – | > 100 | – | > 100 µM | – | > 100 µM | – | > 100 µM |
| CC(C)(c1ccccc1)c1ccc(OC#N)cc1 | – | > 100 µM | – | > 100 µM | – | 24.4 µM | – | > 100 µM | – | > 65.7 µM | – | > 100 µM | – | > 100 | – | > 100 µM | – | > 100 µM | – | > 100 µM |
| COc1ccc(OCC(=O)O)c(C(=O)CCC(=O)O)c1 | – | > 100 µM | – | > 100 µM | – | > 100 µM | – | > 10 µM | – | > 100 µM | – | > 100 µM | – | > 100 | – | > 100 µM | – | > 100 µM | – | > 100 µM |
| COc1cc(C2CC(c3ccc(Nc4ccnc5cc(Cl)ccc45)cc3)=NN2c2ccc(Cl)cc2)cc(OC)c1OC (centres undefined) | 1.66 µM | 50.6 µM | 5.05 µM | > 100 µM | 1.85 µM | 50.2 µM | 1.87 µM | > 100 µM | 3.08 µM | > 100 µM | 2.91 µM | > 100 µM | 2.09 | 8.03 | 1.67 µM | > 100 µM | 4.15 µM | > 100 µM | > 100 µM | > 100 µM |
| Cc1cn(-c2cc(NC(=O)c3ccc(C)c(Nc4nccc(-c5cccnc5)n4)c3)cc(C(F)(F)F)c2)cn1 | > 10 µM and 4.09 µM | > 10 µM and 12.1 µM | 5.26 µM and 4.07 µM | > 10 µM and 9.38 µM | 3.46 µM and 4.18 µM | > 10 µM and 24.4 µM | 5.77 µM and 4.38 µM | > 10 µM and 11.5 µM | 4.26 µM and 2.06 µM | > 10 µM and 7.79 µM | 2.97 µM and 2.47 µM | > 10 µM and 7.32 µM | – | > 65 | 3.81 µM and 2.72 µM | > 10 µM and 9.49 µM | 5.31 µM and 2.68 µM | > 10 µM and 7.76 µM | 1.69 µM and 0.78 µM | 5.04 µM and 4.1 µM |
| C=C(c1ccccc1)[C@@]1(O)CC[C@@H]1N(CC#N)Cc1ccccc1 | – | > 100 µM | – | 35.5 µM | – | 47.8 µM | – | 17.1 µM | – | 30.3 µM | – | > 100 µM | – | 44.3 | – | > 71.4 µM | – | > 73.5 µM | – | 27.5 µM |
| N#CC1(C#N)C(C#N)(C#N)C12CCCCCC2 | – | 34.1 µM | – | 30.5 µM | – | 7.88 µM | – | 29.7 µM | – | 17.5 µM | – | 20.5 µM | – | 35.3 | – | 19.3 µM | – | 21.4 µM | – | 31 µM |
| O=C(OC[C@H]1O[C@H](OC(=O)c2cc(O)c(O)c(OC(=O)c3cc(O)c(O)c(O)c3)c2)[C@H](OC(=O)c2cc(O)c(O)c(OC(=O)c3cc(O)c(O)c(O)c3)c2)[C@@H](OC(=O)c2cc(O)c(O)c(OC(=O)c3cc(O)c(O)c(O)c3)c2)[C@@H]1OC(=O)c1cc(O)c(O)c(OC(=O)c2cc(O)c(O)c(O)c2)c1)c1cc(O)c(O)c(OC(=O)c2cc(O)c(O)c(O)c2)c1 | > 25 µM | > 25 µM | 7.66 µM | > 25 µM | 1.96 µM | 7.68 µM | 4.68 µM | 22.1 µM | 1.57 µM | 6.98 µM | 1.9 µM | > 25 µM | 2.52 | > 25 | 1.67 µM | > 25 µM | 1.4 µM | > 25 µM | 7.42 µM | > 25 µM |
